A short description of data set [1]: Half life of the compound in phosphate buffer saline in presence of pig liver esterase at pH 7.3 by RP18-HPLC analysis. Type of data set: ADME, Sus scrofa.
Data set [2] in a line: Drug metabolism in heparin-stabilized human plasma assessed as (R)-9-(2-(phosphonomethoxy)propyl)adenine formation by HPLC analysis. Type of data set: ADME, cell-free.
Data set [3] in a line: Drug hydrolysis in phosphate buffer saline incubated for 100 hrs in presence of pig liver esterase at pH 7.3 by RP18-HPLC analysis. Type of data set: ADME, Sus scrofa. Conditions: read-out: Drug degradation.
A short description of data set [4]: Drug metabolism in human CEM/0 cell extracts assessed as Tenofovir monophosphate formation by RP18-HPLC analysis. Type of data set: ADME. Conditions: ccrf-cem.
The nature of data set [5]: Half life of the compound in citrate-containing human plasma by HPLC analysis. Type of data set: ADME, cell-free.
Data set [6] in a line: Drug metabolism in phosphate buffer saline assessed as Tenofovir diphosphate formation in presence of pig liver esterase at pH 7.3 by RP18-HPLC analysis. Type of data set: ADME, Sus scrofa. Conditions: isolated protein.
For data set [7], the system named is Human immunodeficiency virus. Description: Substrate activity at HIV reverse transcriptase assessed as n+1 band formation incubated for 30 mins in presence of primer/template mixture and dNTPs by primer extension assay based fluorescence analysis.
Data set [8] deals with T1, DNA polymerase subunit gamma-1 (Homo sapiens) (UniProt P54098).
T1 sequence (whole entry): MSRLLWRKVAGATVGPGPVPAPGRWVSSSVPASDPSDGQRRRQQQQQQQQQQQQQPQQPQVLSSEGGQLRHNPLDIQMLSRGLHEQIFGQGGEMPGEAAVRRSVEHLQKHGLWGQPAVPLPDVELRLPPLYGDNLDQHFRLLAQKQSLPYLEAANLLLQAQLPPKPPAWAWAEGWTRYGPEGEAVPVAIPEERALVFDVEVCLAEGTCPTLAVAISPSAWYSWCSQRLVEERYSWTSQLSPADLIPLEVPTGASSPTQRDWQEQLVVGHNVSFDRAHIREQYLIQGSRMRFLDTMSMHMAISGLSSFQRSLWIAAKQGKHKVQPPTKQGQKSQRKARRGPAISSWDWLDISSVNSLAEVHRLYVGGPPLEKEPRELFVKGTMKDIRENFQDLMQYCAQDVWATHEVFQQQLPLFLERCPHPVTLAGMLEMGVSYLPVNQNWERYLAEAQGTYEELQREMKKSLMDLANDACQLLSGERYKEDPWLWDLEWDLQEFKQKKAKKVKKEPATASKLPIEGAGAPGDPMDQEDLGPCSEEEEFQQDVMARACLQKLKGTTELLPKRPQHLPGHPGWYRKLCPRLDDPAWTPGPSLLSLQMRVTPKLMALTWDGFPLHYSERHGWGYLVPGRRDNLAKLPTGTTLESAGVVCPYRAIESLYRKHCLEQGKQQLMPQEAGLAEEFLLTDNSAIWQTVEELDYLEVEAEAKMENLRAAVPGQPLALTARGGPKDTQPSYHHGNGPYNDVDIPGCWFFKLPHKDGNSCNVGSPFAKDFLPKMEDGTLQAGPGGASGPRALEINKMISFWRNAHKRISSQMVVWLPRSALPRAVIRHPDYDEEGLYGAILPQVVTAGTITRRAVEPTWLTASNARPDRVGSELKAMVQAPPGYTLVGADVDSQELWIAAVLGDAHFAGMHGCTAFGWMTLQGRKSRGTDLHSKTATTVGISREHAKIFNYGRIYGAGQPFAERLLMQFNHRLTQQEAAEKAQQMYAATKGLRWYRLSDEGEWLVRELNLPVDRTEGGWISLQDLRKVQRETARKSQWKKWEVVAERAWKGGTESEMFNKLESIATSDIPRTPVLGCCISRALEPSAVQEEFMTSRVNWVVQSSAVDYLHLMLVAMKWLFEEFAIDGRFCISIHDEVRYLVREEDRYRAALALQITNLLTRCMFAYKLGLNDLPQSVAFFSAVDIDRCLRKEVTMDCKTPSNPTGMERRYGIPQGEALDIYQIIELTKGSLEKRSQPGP
Description: Substrate activity at human DNA polymerase gamma assessed as n+1 band formation incubated for 120 mins in presence of primer/template mixture and dNTPs by primer extension assay based fluorescence analysis.

Data set [9] in a line: Drug metabolism in phosphate buffer saline assessed as gamma-monoalkylated metabolite formation in presence of pig liver esterase at pH 7.3 by RP18-HPLC analysis. Type of data set: ADME, Sus scrofa. Conditions: isolated protein.
Data set [10] deals with Human immunodeficiency virus 1. The data set can be described thus: Potency index, ratio of Tenofovir EC50 to test compound EC50 for antiviral activity against HIV-1 HE infected in wild type human CEM/0 cells. Type of data set: functional.
In data set [11] the test system is Human immunodeficiency virus 2. The data set can be described thus: Potency index, ratio of Tenofovir EC50 to test compound EC50 for antiviral activity against HIV-2 ROD infected in wild type human CEM/0 cells. Type of data set: functional.
Data set [12] can be described thus: Drug metabolism in phosphate buffer saline assessed as (R)-9-(2-(phosphonomethoxy)propyl)adenine formation in presence of pig liver esterase at pH 7.3 by RP18-HPLC analysis. Type of data set: ADME, Sus scrofa. Conditions: isolated protein.
Data set [13] can be described thus: Drug metabolism in human CEM/0 cell extracts assessed as (R)-9-(2-(phosphonomethoxy)propyl)adenine formation by RP18-HPLC analysis. Conditions: ccrf-cem. Type of data set: ADME.
Data set [14] has as its system Human immunodeficiency virus 2. The data set can be described thus: Potency index, ratio of Tenofovir EC50 to test compound EC50 for antiviral activity against HIV-2 ROD infected in thymidine kinase deficient human CEM cells. Type of data set: functional.
Data set [15] is described as follows: Drug hydrolysis in phosphate buffer saline incubated for 500 hrs at pH 7.3 by RP18-HPLC analysis. Type of data set: physicochemical. Conditions: read-out: Drug degradation.
Data set [16] can be described thus: Drug hydrolysis in phosphate buffer saline incubated for 600 hrs at pH 7.3 by RP18-HPLC analysis. Type of data set: physicochemical. Conditions: read-out: Drug degradation.
Data set [17] in a line: Drug metabolism in human CEM/0 cell extracts assessed as gamma-monoalkylated metabolite formation by RP18-HPLC analysis. Type of data set: ADME. Conditions: ccrf-cem.
Data set [18] is described as follows: Drug metabolism in human CEM/0 cell extracts assessed as Tenofovir diphosphate formation by RP18-HPLC analysis. Type of data set: ADME. Conditions: ccrf-cem.

Molecules are shown by their SMILES. Active and inactive are the calls of the source. No cut-off for these calls is given here.

The values that follow come from ChEMBL document CHEMBL5518164, “Membrane-permeable tenofovir-di- and monophosphate analogues” (Eur J Med Chem, 2024).

One may read the half-life as the time in which the quantity being followed falls by half. Regarding `CCCCCCCCCCCCCCCCCCOP(=O)(OCCCC)OP(=O)(O)OP(=O)(O)CO[C@H](C)Cn1cnc2c(N)ncnc21` (some centres not stated), the half-life in [1] was more than 100 h; in data set [5], more than 8 h. Besides, the Drug metabolism result in data set [2] is “Metabolite_Detected”; in data set [4], “Metabolite_Detected”; in data set [6] it was “Metabolite_Notdetected”; in data set [9], “Metabolite_Notdetected”. Further, the metabolised at 100 h in data set [3] was 31%. The outcome in data set [7] was Active. Besides, the outcome in data set [8] was inactive.

With `CCCCCCCCCCCCCCCCCCP(=O)(OCCCC)OP(=O)(O)CO[C@H](C)Cn1cnc2c(N)ncnc21` (some centres not stated), the values for the half-life in data set [1] and in data set [5] were 24 h and more than 5 h, respectively. In addition, the Drug metabolism entry in data set [2], in [12] and in data set [13] was “Metabolite_Detected” throughout. The entries for the “Ratio EC50” value in data set [10], in [11] and in data set [14] were 59, 567 and 326, respectively. In addition, the result in [7] and in [8] was inactive.

Turning to `CCCCCCCCCCCCCCCCCCP(=O)(OCCCC)OP(=O)(O)OP(=O)(O)CO[C@H](C)Cn1cnc2c(N)ncnc21` (some centres not stated), the degraded at 500 h in [15] worked out at 40%. Moreover, the half-life in [1] is more than 100 h; in data set [5], more than 8 h. The Drug metabolism result was “Metabolite_Detected” in data set [2]; “Metabolite_Notdetected” in [17]; “Metabolite_Notdetected” in [18]; “Metabolite_Detected” in data set [4]; “Metabolite_Notdetected” in data set [6]; “Metabolite_Notdetected” in data set [9]. In data set [16], the degraded at 600 h came to 45%. Moreover, the metabolised at 100 h in [3] came out at 16%. Also, the outcome in data set [7] and in [8] was inactive.
